Experiment [1] is described as follows: Luminescence Cell-Based Dose Response HTS to Identify Activators of 5'UTR Stem-Loop Driven Prion Protein mRNA Translation in H4-C Neuroglioblastoma Cells. [Related pubchem assays: 1829 (Project Summary), 1814 (Primary HTS)]. The format is functional.
A short description of experiment [2]: alpha-synuclein stem-loop translation blockers – luminescence, H4 neuroglioblastoma cells, dose confirmation, confirmation (AID 2454).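 Further: H4 neuroglioblastoma cells carrying an alpha-synuclein 5'UTR luciferase reporter; potency for inhibition of the luciferase signal.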 It is filed as functional, cell-based.
Experiment [3] can be described thus: Luminescence Cell-Based Dose Confirmation HTS to Identify Inhibitors of 5'UTR Stem-Loop Driven Alpha-Synuclein mRNA Translation in H4 Neuroglioblastoma Cells. [Related pubchem assays: 1827 (Project Summary), 1813 (Primary HTS)]. The format is functional.
The nature of experiment [4]: alpha-synuclein stem-loop luciferase translation blockers – H4 neuroglioma cells, luminescence, confirmation (AID 1988). It is filed as functional, cell-based.
Experiment [5] is described as follows: luciferase reporter signal reduction – luminescence, H4-C neuroglioblastoma cells, dose response (AID 2458).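 Further: H4 neuroglioblastoma cells stably carrying a luciferase reporter gene fusion.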 The format is functional, cell-based.
Experiment [6] concerns J774.A1. As to the kind of experiment: Confirmation of image-based Screening Assay for Inhibitors of Phagocytosis. [Related pubchem assays (depositor defined):AID1029, AID1643]. The format is functional, cell-based. Conditions: Mus musculus.
The nature of experiment [7]: Luminescence Cell-Based Dose Response HTS to Identify Activators of Luciferase Translation or Activity in H4-C Neuroglioblastoma Cells. [Related pubchem assays: 1829 (Project Summary), 1814 (Primary HTS)]. The format is functional.
Experiment [8] is described as follows: Luminescence Cell-Based Dose Retest to Confirm Activators of 5'UTR Stem-Loop Driven Alpha-Synuclein mRNA Translation in H4 Neuroglioblastoma Cells. [Related pubchem assays (depositor defined):AID1813, AID1829]. The format is functional.
Experiment [9] is described as follows: Luminescence Cell-Based Dose HTS Response to Identify Inhibitors of 5'UTR Stem-Loop Driven Prion Protein mRNA Translation in H4-C Neuroglioblastoma Cells. [Related pubchem assays (depositor defined):AID1814, AID1827]. It is filed as functional.
Experiment [10] can be described thus: cells. The format is functional, cell-based.
Experiment [11] can be described thus: Luminescence Cell-Based Dose Response HTS to Identify Inhibitors of Luciferase Translation or Activity in H4-C Neuroglioblastoma Cells. [Related pubchem assays: 1813 (Primary HTS), 1827 (Project Summary)]. The format is functional.
Experiment [12] can be described thus: Luminescence Cell-Based Dose Response HTS to Identify Inhibitors of 5'UTR Stem-Loop Driven Prion Protein mRNA Translation in H4 Neuroglioblastoma Cells. [Related pubchem assays: 1827 (Project Summary), 1813 (Primary HTS)]. It is filed as functional.
Experiment [13] in a line: luciferase reporter signal suppression in cells – H4 neuroglioma cells, luminescence, dose response (AID 1990). It is filed as functional, cell-based. (A reporter such as luciferase makes a cellular process visible.)
Experiment [14] in a line: viability of uninfected HEp-2 cells – cell-based, HTS, cytotoxicity control for RSV inhibitor project, dose response (AID 2410). It is filed as functional. Particulars: human respiratory syncytial virus.
For experiment [15], the system named is HeLa. Kind of experiment: ATP-based viability loss in HeLa cells – cell-based, CellTiter-Glo luminescence, cherry-pick samples, cytotoxicity control for MITF activator project, dose response (AID 540259). The format is functional. Particulars: Homo sapiens.
Experiment [16] can be described thus: toxicity toward cultured mammalian cells – cell-based, plate reader, cherry-pick samples, cytotoxicity control, dose response (AID 504397). The format is functional.
Experiment [17] addresses T1, Kappa-type opioid receptor (Homo sapiens, UniProt P41145). Kind of experiment: SAR analysis of Antagonists of the Kappa Opioid Receptor (KOR) using an Image-Based Assay - Set 2. [Related pubchem assays (depositor defined):AID1777, AID1785, AID1786, AID1966, AID2133, AID2136, AID2284, AID2285, AID2348]. It is filed as functional.
Experiment [18] deals with T1, Kappa-type opioid receptor. Kind of experiment: SAR analysis of small molecule agonists of the kappa opioid receptor via a luminescent beta-arrestin assay - Set 2. [Related pubchem assays (depositor defined):AID1777, AID1785, AID1786, AID1966, AID2133, AID2136, AID2284, AID449737]. It is filed as functional.
The target in experiment [19] is Delta-type opioid receptor (Homo sapiens, UniProt P41143). Kind of experiment: SAR Analysis of Antagonists of the DOR Receptor using an Image-Based Assay - Set 2. [Related pubchem assays (depositor defined):AID1777, AID1785, AID1786, AID1966, AID2133, AID2136, AID2284, AID2285, AID2357]. It is filed as functional.
Experiment [20] addresses T2, Tyrosine-protein phosphatase non-receptor type 22 (Homo sapiens, UniProt Q9Y2R2).
T2 sequence (Q9Y2R2 whole entry): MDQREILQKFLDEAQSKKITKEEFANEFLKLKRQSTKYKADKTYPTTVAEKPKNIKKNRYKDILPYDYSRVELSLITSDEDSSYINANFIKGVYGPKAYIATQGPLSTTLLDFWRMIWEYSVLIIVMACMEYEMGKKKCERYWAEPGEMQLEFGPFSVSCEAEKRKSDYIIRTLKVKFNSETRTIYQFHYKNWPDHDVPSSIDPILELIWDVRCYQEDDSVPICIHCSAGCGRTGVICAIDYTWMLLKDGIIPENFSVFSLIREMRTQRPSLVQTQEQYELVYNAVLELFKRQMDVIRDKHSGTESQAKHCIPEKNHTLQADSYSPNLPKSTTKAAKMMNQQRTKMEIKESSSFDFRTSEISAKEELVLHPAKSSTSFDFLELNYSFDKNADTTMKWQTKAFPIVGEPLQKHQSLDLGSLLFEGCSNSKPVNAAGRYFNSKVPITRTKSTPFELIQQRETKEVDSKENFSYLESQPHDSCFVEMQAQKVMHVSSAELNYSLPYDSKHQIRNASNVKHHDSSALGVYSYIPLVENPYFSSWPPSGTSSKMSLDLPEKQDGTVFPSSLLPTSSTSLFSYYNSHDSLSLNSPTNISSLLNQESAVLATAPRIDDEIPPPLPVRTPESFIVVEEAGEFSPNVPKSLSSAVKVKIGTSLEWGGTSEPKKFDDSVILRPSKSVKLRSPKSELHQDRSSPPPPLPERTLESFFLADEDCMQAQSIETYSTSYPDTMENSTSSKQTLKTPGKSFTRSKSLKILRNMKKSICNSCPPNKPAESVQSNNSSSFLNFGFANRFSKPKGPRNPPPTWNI
As to the kind of experiment: PTPN22 lymphoid phosphatase activity blockers – biochemical, fluorescence intensity, uHTS (AID 1779).

In experiment [21] the target is T2, Tyrosine-protein phosphatase non-receptor type 22. Kind of experiment: LYP1 Fluorescent Assay using OMFP substrate for In Vitro dose response studies. [Related pubchem assays (depositor defined):AID1779, AID1784, AID435024].
For experiment [22] the target is unchanged. The format is functional.
Experiment [23] addresses T3, Tyrosine-protein phosphatase non-receptor type 7 (Homo sapiens, UniProt P35236).
T3 sequence (P35236 whole entry): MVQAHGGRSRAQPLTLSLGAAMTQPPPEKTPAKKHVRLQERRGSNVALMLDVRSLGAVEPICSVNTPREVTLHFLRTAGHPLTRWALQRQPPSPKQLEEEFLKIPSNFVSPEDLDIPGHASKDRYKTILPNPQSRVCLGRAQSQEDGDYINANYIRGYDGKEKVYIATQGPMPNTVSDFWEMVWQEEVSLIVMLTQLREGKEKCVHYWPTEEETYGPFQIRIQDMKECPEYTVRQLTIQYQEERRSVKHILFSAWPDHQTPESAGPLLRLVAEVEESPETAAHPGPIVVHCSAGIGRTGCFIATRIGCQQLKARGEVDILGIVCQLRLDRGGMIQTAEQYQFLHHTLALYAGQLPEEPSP
Kind of experiment: HTS HePTP Fluorescent Assay using OMFP substrate for In Vitro dose response studies. [Related pubchem assays (depositor defined):AID1059, AID1077, AID1784, AID2068, AID2085, AID435032, AID521]. The format is functional.

Experiment [24] concerns the target T3, Tyrosine-protein phosphatase non-receptor type 7. The format is functional.
The target of experiment [25] is T2, Tyrosine-protein phosphatase non-receptor type 22. The format is functional. This is another data set of the same source.

Broadly, the EC50 is the concentration giving half of the maximal effect. What is called IC50 is the concentration needed to halve the response being measured. As usually defined, the CC50 is the concentration giving 50% cytotoxicity. Broadly, the AC50 is the midpoint of the concentration-response curve, whichever way the signal moves.

The source made the active and inactive calls.

T1 sequence (P41145 whole entry): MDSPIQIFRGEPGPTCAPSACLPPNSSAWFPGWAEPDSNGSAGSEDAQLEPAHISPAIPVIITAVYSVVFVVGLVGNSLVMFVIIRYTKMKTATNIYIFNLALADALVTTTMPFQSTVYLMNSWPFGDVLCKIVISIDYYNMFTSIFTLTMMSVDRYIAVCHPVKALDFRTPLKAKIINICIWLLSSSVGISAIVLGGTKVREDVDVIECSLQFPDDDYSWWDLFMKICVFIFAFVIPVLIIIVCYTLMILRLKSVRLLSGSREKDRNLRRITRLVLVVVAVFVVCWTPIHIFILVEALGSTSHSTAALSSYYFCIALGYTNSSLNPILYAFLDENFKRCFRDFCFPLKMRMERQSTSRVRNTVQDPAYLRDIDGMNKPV
Chain of Delta-type opioid receptor (P41143 whole entry): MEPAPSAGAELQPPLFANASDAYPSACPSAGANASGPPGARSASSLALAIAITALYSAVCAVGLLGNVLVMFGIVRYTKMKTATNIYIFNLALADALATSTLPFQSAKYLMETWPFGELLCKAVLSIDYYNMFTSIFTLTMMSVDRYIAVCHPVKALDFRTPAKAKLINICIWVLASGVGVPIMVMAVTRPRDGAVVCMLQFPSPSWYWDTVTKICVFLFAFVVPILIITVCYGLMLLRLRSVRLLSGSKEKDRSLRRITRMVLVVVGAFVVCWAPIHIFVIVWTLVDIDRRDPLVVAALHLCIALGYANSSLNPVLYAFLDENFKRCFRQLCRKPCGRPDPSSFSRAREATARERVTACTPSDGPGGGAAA

Turning to `N#CC1=C(N)Oc2c(ccc3ccccc23)C1c1cccs1` (stereo not given), the concentration for a half-maximal effect (EC50) in experiment [1] was 0.162 µM (inconclusive); in experiment [2], 0.739 µM (active); in experiment [3], 9.28 µM (active); in experiment [4] it was < 0.1 µM (active); in [5], 0.474 µM (active); in experiment [7], 0.246 µM (inconclusive). Further, the EC50 is 9.28 µM (inconclusive) in experiment [8]; 0.162 µM (active) in experiment [9]; 0.885 µM (active) in experiment [10]; 0.246 µM (active) in experiment [11]; 9.47 µM (active) in experiment [12]; 5.47 µM (inconclusive) in experiment [13]. The IC50 in experiment [6] is 1.86 µM (active).

Turning to `COc1cccc2sc3ccc(C#CC4(O)CCCCC4)cc3c(=O)c12`, the half-maximal cytotoxic concentration (CC50) in experiment [14] was 13.9 µM (active). In addition, the AC50 in [15] is 39.6 µM (active); in experiment [16], 85.7 µM (active).

With `CC[C@](C)(C(=O)NC1CCCCC1)N(Cc1ccco1)C(=O)c1ccccn1`, the IC50 in experiment [17] and in experiment [19] was > 32 µM (inactive) in each case. For the same molecule, the EC50 in experiment [18] was 0.151 µM (active).

Take `O=C(N/N=C/c1ccc2c(c1)OCO2)c1cc(-c2ccncc2)nc2ccccc12`: the IC50 was > 99 µM (inactive) in experiment [20]; > 99 µM (inactive) in [21]; > 79.4 µM (inactive) in experiment [22]; > 99 µM (inactive) in experiment [23]; > 79.4 µM (inactive) in experiment [24]; > 79.4 µM (inactive) in [25].

The record behind these values is ChEMBL document CHEMBL1201862, “PubChem BioAssay data set” (2004).
